In article PMC7167990, “Therapeutic Effects of Atranorin towards the Proliferation of Babesia and Theileria Parasites” (Pathogens, 2020):
Where two headings read alike, the source gives them in different places.

Legend:
B. bigemina = assay: Parasite viability test in vitro (regrowth after drug withdrawal, microscopy); assay type: cell-based; parameters: key: a positive (+) indicates parasites regrowth; a negative (–) shows the parasites total clearance after drug pressure withdrawal using microscopy assay; conditions: 4 days treatment, then drug-free culture
Protocol: (§1) The viability studies of ATR-treated parasites were monitored via microscopy as reported elsewhere. In a 96-well microtiter plate, an aliquot of 1% parasitemia (10 µL) of iRBCs was cultivated with 90 µL of respective media containing various concentrations of ATR and DA for 4 successive days with changing media daily. […] On the fifth day, a mixture of iRBCs (3 µL) from each well and fresh equine or bovine RBCs (7 µL) was transferred to another plate, cultured in a medium free from drug and then left for an additional six days. The total parasite clearance was recorded as negative, while the relapse of parasites was recorded as positive.

B. bovis = assay: as above; assay type: cell-based; parameters: key: a positive (+) indicates parasites regrowth; a negative (–) shows the parasites total clearance after drug pressure withdrawal using microscopy assay; conditions: 4 days treatment, then drug-free culture
Protocol: as §1

B. caballi = assay: as above; assay type: cell-based; parameters: key: a positive (+) indicates parasites regrowth; a negative (–) shows the parasites total clearance after drug pressure withdrawal using microscopy assay; conditions: 4 days treatment, then drug-free culture
Protocol: as §1

B. divergens = assay: as above; assay type: cell-based; parameters: key: a positive (+) indicates parasites regrowth; a negative (–) shows the parasites total clearance after drug pressure withdrawal using microscopy assay; conditions: 4 days treatment, then drug-free culture
Protocol: as §1

T. equi = assay: as above; assay type: cell-based; parameters: key: a positive (+) indicates parasites regrowth; a negative (–) shows the parasites total clearance after drug pressure withdrawal using microscopy assay; conditions: 4 days treatment, then drug-free culture
Protocol: as §1

NIH/3T3 cells = assay: Cytotoxicity assay (CCK-8 cell viability); assay type: cell-based, mouse; conditions: for EC50: read-out: EC50 NIH/3T3
Protocol: Cultures of human foreskin fibroblast (HFF; HFF-1 ATCC® SCRC-1041™), Madin–Darby bovine kidney (MDBK; ECACC) and mouse embryonic fibroblast (NIH/3T3; ATCC® CRL-1658™) cells were retrieved from −80 °C stock and cultured continuously at 37 °C under atmosphere 5% CO2 in our laboratory. The NIH/3T3 and HFFs cells were maintained in Dulbecco Modified Eagle’s Medium (DMEM; Gibco, Grand Island, NY, USA), while MDBK cell line grown in Minimum Essential Medium Eagle (MEM; Gibco). Each medium was treated with 0.5% penicillin/streptomycin (Gibco), 10% inactivated fetal bovine serum and 2 mM glutamine. Every 72 to 96 h, the medium was replaced, and once 80% confluence was reached, the cell collection was performed by sub-culture protocol. To confirm the absence of mycoplasma contamination, 4,6-diamidino-2-phenylindole dihydrochloride stain (Sigma-Aldrich) was used.
The cell viability test was conducted in a 96-well plate as described elsewhere. Briefly, an aliquot of (100 µL) cells was implanted at a concentration of 5 × 10^4 cells/mL in DMEM or MEM with fetal bovine serum and incubated overnight under atmosphere 5% CO2 at 37 °C for attachment. Using two-fold dilutions, aliquots (10 µL) of drugs were added in triplicate per well to attain final concentrations of 50 to 1000 µM and further incubated for 24 h. The positive control wells containing cells mixed with the medium in 0.4% DMSO, whereas the negative control wells containing culture medium only. After a 24-h incubation, Cell Counting Kits-8 (CCK-8, 10 µL) was added to each well and then plate incubation was conducted for an additional 3 h and a microplate reader was used to assess the absorbance at 450 nm.

[1] = test system: bovine RBCs (B. divergens); assay: Impact of ATR pretreatment of bovine RBCs on later parasite proliferation; assay type: cell-based; conditions: 400 µM ATR for 3 and 6 h, then B. divergens subculture
Protocol: (§2) Prior to parasite subculture, a concentration of 400 µM of ATR was mixed with fresh bovine and equine RBCs and incubated at a humidified incubator for 3 and 6 h. Afterward, the pretreated-RBCs were mixed with B. divergens and T. equi infected RBCs (iRBCs) after washing thrice with PBS to achieve 1% parasitemia. Thereafter, using a 24-well plate, an aliquot of iRBCs (100 μL) was mixed with culture media (900 μL); the control RBCs were left untreated. To monitor the parasitemia and any side effects due to the pretreatment, Giemsa-stained smears were prepared every 24 h for four days.

equine RBCs (T. equi) = assay: Impact of ATR pretreatment of equine RBCs on later parasite proliferation; assay type: cell-based; conditions: 400 µM ATR for 3 and 6 h, then T. equi subculture
Protocol: as §2

hepatitis C virus (HCV) = test system: hepatitis C virus (HCV); parameters: method as in PMID 25793970; conditions: antiviral activity against hepatitis C virus (HCV); cited from earlier work
Plasmodium species = test system: Plasmodium species; parameters: method as in earlier work; conditions: ATR combined with quinine; cited from earlier work
[2] = test system: LLC/MK2 monkey kidney epithelial cells; parameters: method as in PMID 21487780; conditions: cited from earlier work
[3] = EC50 NIH/3T3 / IC50 B. bigemina
[4] = EC50 NIH/3T3 / IC50 B. divergens

COC(=O)c1c(C)cc(OC(=O)c2c(C)cc(O)c(C=O)c2O)c(C)c1O [ATR, Atranorin]
Viability (B. bigemina; A1 = 0.25× IC50, 16.1 µM): +
Viability (B. bigemina; A2 = 0.5× IC50, 32.25 µM): +
Viability (B. bigemina; A3 = 1× IC50, 64.5 µM): +
Viability (B. bigemina; A4 = 2× IC50, 129 µM): completely suppressed and did not revive and –
Viability (B. bigemina; A5 = 4× IC50, 258 µM): –
Viability (B. bigemina; A6 = 6× IC50, 387 µM): –
Viability (B. bovis; A1 = 0.25× IC50, 24.6 µM): +
Viability (B. bovis; A2 = 0.5× IC50, 49.2 µM): +
Viability (B. bovis; A3 = 1× IC50, 98.4 µM): +
Viability (B. bovis; A4 = 2× IC50, 196.8 µM): completely suppressed and did not revive and –
Viability (B. bovis; A5 = 4× IC50, 393.6 µM): –
Viability (B. bovis; A6 = 6× IC50, 590.4 µM): –
Viability (B. caballi; A1 = 0.25× IC50, 11.65 µM): +
Viability (B. caballi; A2 = 0.5× IC50, 23.3 µM): +
Viability (B. caballi; A3 = 1× IC50, 46.6 µM): +
Viability (B. caballi; A4 = 2× IC50, 93.2 µM): completely suppressed and did not revive and –
Viability (B. caballi; A5 = 4× IC50, 186.4 µM): –
Viability (B. caballi; A6 = 6× IC50, 279.6 µM): –
Viability (B. divergens; A1 = 0.25× IC50, 11.3 µM): +
Viability (B. divergens; A2 = 0.5× IC50, 22.6 µM): +
Viability (B. divergens; A3 = 1× IC50, 45.2 µM): +
Viability (B. divergens; A4 = 2× IC50, 90.4 µM): +
Viability (B. divergens; A5 = 4× IC50, 180.8 µM): cleared and did not revive and –
Viability (B. divergens; A6 = 6× IC50, 271.2 µM): –
Viability (T. equi; A1 = 0.25× IC50, 17.8 µM): +
Viability (T. equi; A2 = 0.5× IC50, 35.6 µM): +
Viability (T. equi; A3 = 1× IC50, 71.3 µM): +
Viability (T. equi; A4 = 2× IC50, 142.6 µM): +
Viability (T. equi; A5 = 4× IC50, 285.2 µM): +
Viability (T. equi; A6 = 6× IC50, 427.8 µM): suppressed and –
Selective Index NIH/3T3 (NIH/3T3 cells; [3]): 9.9
Selective Index NIH/3T3 (NIH/3T3 cells; EC50 NIH/3T3 / IC50 B. bovis): 6.5
Selective Index NIH/3T3 (NIH/3T3 cells; EC50 NIH/3T3 / IC50 B. caballi): 13.7
Selective Index NIH/3T3 (NIH/3T3 cells; [4]): 14.0
Selective Index NIH/3T3 (NIH/3T3 cells; EC50 NIH/3T3 / IC50 T. equi): 9
EC50 (NIH/3T3 cells; Mus musculus, NIH3T3, 24 h): 638 ± 12 µM
parasite proliferation in ATR-pretreated RBCs versus untreated RBCs [1]: did not show a significant difference
parasite proliferation in ATR-pretreated RBCs versus untreated RBCs (equine RBCs (T. equi)): did not show a significant difference
IC50 (hepatitis C virus (HCV)): 22.3 ± 8 µM
combined treatment efficacy with quinine (Plasmodium species): slight antagonistic efficacy
cytotoxic action [2]: mild cytotoxic action

O=C1C(O)=C([C@H]2CC[C@H](c3ccc(Cl)cc3)CC2)C(=O)c2ccccc21 [AV, atovaquone]
Selective Index NIH/3T3 (NIH/3T3 cells; [3]): ˃142.7
Selective Index NIH/3T3 (NIH/3T3 cells; EC50 NIH/3T3 / IC50 B. bovis): ˃2564
Selective Index NIH/3T3 (NIH/3T3 cells; EC50 NIH/3T3 / IC50 B. caballi): ˃980.4
Selective Index NIH/3T3 (NIH/3T3 cells; [4]): ˃2631
Selective Index NIH/3T3 (NIH/3T3 cells; EC50 NIH/3T3 / IC50 T. equi): ˃1052
EC50 (NIH/3T3 cells; Mus musculus, NIH3T3, NIH/3T3 cells, 24 h, CCK-8): > 100 µM

CC(=O)NCC(=O)O.CC(=O)NCC(=O)O.N=C(N)c1ccc(N=NNc2ccc(C(=N)N)cc2)cc1 [DA, diminazene aceturate]
Selective Index NIH/3T3 (NIH/3T3 cells; [3]): ˃147.1
Selective Index NIH/3T3 (NIH/3T3 cells; EC50 NIH/3T3 / IC50 B. bovis): ˃285.7
Selective Index NIH/3T3 (NIH/3T3 cells; EC50 NIH/3T3 / IC50 B. caballi): ˃5000
Selective Index NIH/3T3 (NIH/3T3 cells; [4]): ˃232.5
Selective Index NIH/3T3 (NIH/3T3 cells; EC50 NIH/3T3 / IC50 T. equi): ˃140.8
EC50 (NIH/3T3 cells; NIH/3T3 cells, 24 h, CCK-8): > 100 µM
